Test system: P388 lymphocytic leukemia
Assay: Activity against the P388 lymphocytic leukemia
Assay type: cell-based
Settings: same level as routinely obtained with the natural product

Substance: dolastatin 10 [Synthetic dolastatin 10]
- ED50, activity against the P388 lymphocytic leukemia: 10^-4 μg/mL

From patent US4978744A, “Synthesis of dolastatin 10” (Arizona Board of Regents, priority 1989, dated 1990)
